Laboratory results from ChEMBL document CHEMBL4699427, “A3- and A2B-fluorocorroles: synthesis, X-ray characterization and antiviral activity evaluation against human cytomegalovirus infection” (RSC Med Chem, 2020).
The source made the active and inactive calls. No cut-off for these calls is given here.

What was measured:
[1] = Cytotoxicity against human MRC5 cells assessed as reduction in cell viability incubated for 6 days by Hoechst 33342 staining based microscopic analysis; conditions: time 6 day
[2] = tested on: Human betaherpesvirus 5; assay: Antiviral activity against human Cytomegalovirus infected in human ARPE-19 cells assessed as reduction in viral replication incubated for 12 days by Hoechst 33342 staining based microscopic analysis; type: functional, cell-based; conditions: Human betaherpesvirus 5, ARPE-19, 288 h
[3] = tested on: Human betaherpesvirus 5; assay: Antiviral activity against human Cytomegalovirus infected in human MRC5 cells assessed as reduction in viral replication incubated for 6 days by Hoechst 33342 staining based microscopic analysis; type: functional, cell-based; conditions: Human betaherpesvirus 5, MRC5, 144 h
[4] = tested on: Human betaherpesvirus 5; assay: Antiviral activity against human Cytomegalovirus infected in human ARPE-19 cells assessed as reduction in viral replication incubated for 13 days by Hoechst 33342 staining based microscopic analysis; type: functional, cell-based; conditions: Human betaherpesvirus 5, ARPE-19, 312 h
[5] = Selectivity index, ratio of CC50 for human MRC5 cells to IC50 for human Cytomegalovirus infected in human MRC5 cells incubated for 6 days; type: toxicity, cell-based; conditions: time 6 day, read-out: Ratio CC50/IC50
[6] = Selectivity index, ratio of CC50 for human MRC5 cells to IC50 for human Cytomegalovirus infected in human ARPE-19 cells incubated for 13 days; type: toxicity, cell-based; conditions: time 6 day, read-out: Ratio CC50/IC50
[7] = tested on: Human betaherpesvirus 5; assay: Antiviral activity against Human Cytomegalovirus infected in human MRC5 cells assessed as reduction in infection rate incubated for 6 days by Hoechst 33342 staining based microscopic analysis; type: functional, cell-based; conditions: Human betaherpesvirus 5, MRC5, 144 h; read-out: IC50
[8] = tested on: Human betaherpesvirus 5; assay: Antiviral activity against human Cytomegalovirus infected in human ARPE-19 cells assessed as reduction in infection rate incubated for 12 days by Hoechst 33342 staining based microscopic analysis; type: functional, cell-based; conditions: Human betaherpesvirus 5, ARPE-19, 288 h
[9] = Selectivity index, ratio of CC50 for human MRC5 cells to IC50 for human Cytomegalovirus infected in human ARPE-19 cells incubated for 12 days; type: toxicity, cell-based; conditions: time 6 day, read-out: Ratio CC50/IC50
[10] = Cytotoxicity against human MRC5 cells assessed as assessed as number of fluorescent nuclei incubated for 6 days by Hoechst 33342 staining based microscopic analysis; type: cell-based; conditions: time 6 day
[11] = Cytotoxicity against human ARPE-19 cells assessed as assessed as number of fluorescent nuclei incubated for 6 days by Hoechst 33342 staining based microscopic analysis; type: cell-based; conditions: time 6 day
[12] = tested on: Human betaherpesvirus 5; assay: Antiviral activity against human Cytomegalovirus infected in human ARPE-19 cells assessed as reduction in infection rate incubated for 10 days by Hoechst 33342 staining based microscopic analysis; type: functional, cell-based; conditions: Human betaherpesvirus 5, ARPE-19, 240 h; read-out: IC50
[13] = Drug metabolism in human ARPE-19 cell culture at 10 uM incubated for 10 days; type: ADME; conditions: arpe-19, 240 h, time 10 day
[14] = Drug uptake in rabbit RK13 cells incubated for 24 hrs by Hoechst staining based microscopic analysis; type: ADME, cell-based, Oryctolagus cuniculus; conditions: rk13, 24 h
[15] = tested on: Human betaherpesvirus 5; assay: Antiviral activity against letermovir resistant Cytomegalovirus UL56 R369G infected in human MRC5 cells assessed as reduction in infection rate at 600 nM incubated for 6 days by Hoechst 33342 staining based microscopic analysis; type: functional, cell-based; conditions: time 6.0 day
[16] = tested on: Human betaherpesvirus 5; assay: Antiviral activity against ganciclovir resistant Cytomegalovirus UL54 D301N infected in human MRC5 cells assessed as reduction in infection rate incubated for 6 days by Hoechst 33342 staining based microscopic analysis; type: functional, cell-based; conditions: time 6.0 day
[17] = tested on: Human betaherpesvirus 5; assay: Antiviral activity against ganciclovir resistant Cytomegalovirus UL54 D301N infected in human MRC5 cells assessed as reduction in viral DNA replication incubated for 6 days by Hoechst 33342 staining based microscopic analysis; type: functional, cell-based; conditions: time 6.0 day
[18] = Selectivity index, ratio of CC50 for human MRC5 cells to IC50 for human Cytomegalovirus infected in human ARPE-19 cells incubated for 10 days; type: toxicity, cell-based; conditions: time 6 day, read-out: Ratio CC50/IC50
[19] = tested on: Human betaherpesvirus 5; assay: Antiviral activity against human Cytomegalovirus infected in human ARPE-19 cells assessed as reduction in virus-induced cytopathic effect at 0.75 uM incubated for 10 days by Hoechst 33342 staining based microscopic analysis; type: functional, cell-based; conditions: time 10.0 day
[20] = tested on: Human betaherpesvirus 5; assay: Antiviral activity against human Cytomegalovirus harboring ANCHOR assessed as reduction in infection rate incubated for 1 hr followed by cell line addition and measured after 24 hrs by Hoechst 33342 staining based microscopic analysis; type: functional; conditions: ARPE-19, dose microM 0.187-3, time 25.0 hrs
[21] = tested on: Human betaherpesvirus 5; assay: Antiviral activity against human Cytomegalovirus harboring ANCHOR assessed as reduction in viral DNA replication incubated for 1 hr followed by cell line addition and measured after 24 hrs by Hoechst 33342 staining based microscopic analysis; type: functional; conditions: ARPE-19, dose microM 0.187-3, time 25.0 hrs
[22] = tested on: Human betaherpesvirus 5; assay: Virucidal activity against human Cytomegalovirus infected in APRE-19 cells at 0.187 to 3 uM preincubated for 1 hr with virus followed by cell line addition and measured after 24 hrs by Hoechst 33342 staining based microscopic analysis; type: functional; conditions: ARPE-19, dose microM 0.187-3, time 25.0 hrs
[23] = tested on: Human betaherpesvirus 5; assay: Antiviral activity against human Cytomegalovirus infected in human ARPE-19 cells assessed as reduction in viral DNA replication at 0.187-3 uM incubated for 18 hrs by Hoechst 33342 staining based microscopic analysis; type: functional, cell-based; conditions: dose microM 0.187-3, time 18.0 hrs
[24] = tested on: Human betaherpesvirus 5; assay: Antiviral activity against human Cytomegalovirus harboring ANCHOR infected in human ARPE-19 cells assessed as reduction in viral infection rate at 0.187 to 3 uM incubated for 18 hrs post infection by Hoechst 33342 staining based microscopic analysis; type: functional, cell-based; conditions: dose microM 0.187-3, time 18.0 hrs
[25] = tested on: Human betaherpesvirus 5; assay: Induction of viral absorption in human Cytomegalovirus harboring ANCHOR infected in human ARPE-19 cells at 0.187 to 3 uM incubated for 18 hrs post infection by Hoechst 33342 staining based microscopic analysis; type: functional, organism-based; conditions: dose microM 0.187-3, time 18.0 hrs
[26] = tested on: Human betaherpesvirus 5; assay: Induction of viral entry in human Cytomegalovirus harboring ANCHOR infected in human ARPE-19 cells at 0.187 to 3 uM incubated for 18 hrs by Hoechst 33342 staining based microscopic analysis; type: functional, organism-based; conditions: dose microM 0.187-3, time 18.0 hrs
[27] = tested on: Human betaherpesvirus 5; assay: Antiviral activity against human Cytomegalovirus infected in human MRC5 cells assessed as reduction in viral infection rate at 0.75 uM incubated for 6 days by Hoechst 33342 staining based microscopic analysis; type: functional, cell-based; conditions: time 6.0 day
[28] = tested on: Human betaherpesvirus 5; assay: Antiviral activity against human Cytomegalovirus infected in human MRC5 cells assessed as reduction in viral replication at 0.75 uM incubated for 6 days by Hoechst 33342 staining based microscopic analysis; type: functional, cell-based; conditions: time 6.0 day
[29] = tested on: Human betaherpesvirus 5; assay: Antiviral activity against human Cytomegalovirus infected in human MRC5 cells assessed as reduction in infection rate at 0.187 to 3 uM treated 24 hrs after infection measured after 6 days by Hoechst 33342 staining based microscopic analysis; type: functional, cell-based; conditions: dose microM 0.187-3, time 6.0 day
[30] = tested on: Human betaherpesvirus 5; assay: Antiviral activity against human Cytomegalovirus infected in human MRC5 cells assessed as reduction in infection rate at 0.187 to 3 uM preincubated for 1 hr with cells by Hoechst 33342 staining based microscopic analysis; type: functional, cell-based; conditions: dose microM 0.187-3, time 1.0 hrs
[31] = tested on: RK13; assay: Effect on gB expression in human Cytomegalovirus harboring ANCHOR infected in rabbit RK13 cells assessed as reduction in replication at late phase by at 5 uM by immunofluorescence assay; type: functional, cell-based; conditions: Human betaherpesvirus 5
[32] = tested on: Human betaherpesvirus 5; assay: Antiviral activity against Human cytomegalovirus harboring ANCHOR infected in ARPE-19 cells assessed as reduction in viral infection at 0.75 uM measured after 6 days by microscopic analysis relative to control; type: functional, cell-based; conditions: time 6.0 day
[33] = tested on: Human betaherpesvirus 5; assay: Antiviral activity against human Cytomegalovirus harboring ANCHOR infected in ARPE-19 cells assessed as reduction in infection rate preincubated for 2 hrs with cells followed by infected with virus and measured after 24 hrs by Hoechst 33342 staining based microscopic analysis; type: functional, cell-based; conditions: dose microM 0.187-3, time 26.0 hrs
[34] = tested on: Human betaherpesvirus 5; assay: Antiviral activity against human Cytomegalovirus harboring ANCHOR infected in ARPE-19 cells assessed as reduction in viral DNA replication preincubated for 2 hrs with cells followed by infected with virus and measured after 24 hrs by Hoechst 33342 staining based microscopic analysis; type: functional, cell-based; conditions: dose microM 0.187-3, time 26.0 hrs
[35] = tested on: Human betaherpesvirus 5; assay: Virucidal activity against human Cytomegalovirus infected in MRC-5 cells at 0.187 to 3 uM preincubated for 1 hr with virus followed by cell line addition and measured after 24 hrs by Hoechst 33342 staining based microscopic analysis; type: functional; conditions: MRC5, dose microM 0.187-3, time 25.0 hrs
[36] = tested on: Human betaherpesvirus 5; assay: Induction of viral absorption in human Cytomegalovirus harboring ANCHOR infected in human MRC-5 cells at 0.187 to 3 uM incubated for 18 hrs post infection by Hoechst 33342 staining based microscopic analysis; type: functional, organism-based; conditions: MRC5, dose microM 0.187-3, time 18.0 hrs
[37] = tested on: Human betaherpesvirus 5; assay: Induction of viral entry in human Cytomegalovirus harboring ANCHOR infected in human MRC-5 cells at 0.187 to 3 uM incubated for 18 hrs by Hoechst 33342 staining based microscopic analysis; type: functional, organism-based; conditions: MRC5, dose microM 0.187-3, time 18.0 hrs
[38] = tested on: Human betaherpesvirus 5; assay: Antiviral activity against human Cytomegalovirus UL56 infected in human MRC5 cells assessed as reduction in infection rate incubated for 6 days by Hoechst 33342 staining based microscopic analysis; type: functional, cell-based; conditions: Human betaherpesvirus 5, UL56, MRC5, 144 h

Q: Which CC50 at 144 h [1] does the source give for Fc1ccc(F)c(-c2c3nc(c4ccc([nH]4)c(-c4c(F)ccc(F)c4F)c4ccc([nH]4)c(-c4c(F)ccc(F)c4F)c4ccc2[nH]4)C=C3)c1F here?
A: > 50000 nM

Q: And the IC50 [2]?
A: 2300 nM

Q: And the IC50 [3]?
A: 1800 nM

Q: And the IC50 [4]?
A: 2300 nM

Q: And the selectivity ratio at 144 h [5]?
A: > 28

Q: And the selectivity ratio at 144 h [6]?
A: > 21

Q: For Fc1cc(F)c(F)c(-c2c3nc(c4ccc([nH]4)c(-c4c(F)c(F)cc(F)c4F)c4ccc([nH]4)c(-c4c(F)c(F)cc(F)c4F)c4ccc2[nH]4)C=C3)c1F, which CC50 at 144 h [1] is on record?
A: 25300 nM

Q: And the IC50 [7]?
A: 1040 nM

Q: What about the IC50 [8] of the same compound?
A: 160 nM

Q: What about the selectivity ratio at 144 h [5] of the same compound?
A: > 24

Q: And the selectivity ratio at 144 h [9]?
A: > 312

Q: What about the CC50 at 144 h [10] of the same compound?
A: 3400 nM

Q: What about the CC50 at 144 h [11] of the same compound?
A: 22500 nM

Q: For Fc1cc(F)c(F)c(-c2c3nc(c4ccc([nH]4)c(-c4c(F)c(F)cc(F)c4F)c4ccc([nH]4)c(-c4c(F)c(F)c(F)c(F)c4F)c4ccc2[nH]4)C=C3)c1F, which CC50 at 144 h [1] is on record?
A: 16200 nM

Q: What about the IC50 [7] of the same compound?
A: 650 nM

Q: And the IC50 [12]?
A: 20 nM

Q: And the Drug metabolism [13]?
A: Metabolite_Notdetected

Q: What about the Drug uptake [14] of the same compound?
A: Active

Q: What about the Activity [15] of the same compound?
A: Active

Q: What about the Activity [16] of the same compound?
A: Active

Q: What about the Activity [17] of the same compound?
A: Active

Q: And the selectivity ratio at 144 h [5]?
A: 24.9

Q: And the selectivity ratio at 144 h [18]?
A: 416

Q: Which CC50 at 144 h [1] does the source give for Fc1c(F)c(F)c(-c2c3nc(c4ccc([nH]4)c(-c4c(F)c(F)c(F)c(F)c4F)c4ccc([nH]4)c(-c4c(F)c(F)c(F)c(F)c4F)c4ccc2[nH]4)C=C3)c(F)c1F here?
A: 3270 nM

Q: And the IC50 [7]?
A: 1190 nM

Q: What about the IC50 [8] of the same compound?
A: 960 nM

Q: And the Activity [19]?
A: Active

Q: What about the Activity [20] of the same compound?
A: Dose-dependent effect

Q: And the Activity [21]?
A: Dose-dependent effect

Q: And the Activity [22]?
A: inactive

Q: What about the Activity [23] of the same compound?
A: Active

Q: What about the Activity [24] of the same compound?
A: inactive

Q: And the Activity [25]?
A: Active

Q: And the Activity [26]?
A: Active

Q: And the Activity [27]?
A: Active

Q: And the Activity [28]?
A: Active

Q: And the Activity [29]?
A: Active

Q: And the Activity [30]?
A: inactive

Q: And the Activity [31]?
A: Active

Q: What about the selectivity ratio at 144 h [5] of the same compound?
A: 2.75

Q: What about the selectivity ratio at 144 h [9] of the same compound?
A: 27

Q: What about the Activity [32] of the same compound?
A: Active

Q: What about the Activity [33] of the same compound?
A: inactive

Q: What about the Activity [34] of the same compound?
A: inactive

Q: And the Activity [35]?
A: inactive

Q: What about the Activity [36] of the same compound?
A: Dose-dependent effect

Q: And the Activity [37]?
A: Dose-dependent effect

Q: Which IC50 [38] does the source give for COc1cccc(N2CCN(C3=Nc4c(F)cccc4[C@H](CC(=O)O)N3c3cc(C(F)(F)F)ccc3OC)CC2)c1 [LETERMOVIR] here?
A: 4 nM
